Tests used:
human P-gp = molecular target: T1, human P-gp (Homo sapiens, UniProt P08183); assay: Transcellular P-gp assay (human P-gp); assay type: in vitro ADME; details: LLC-PK1, second value of cell, transfected LLC-PK cells; for efflux ratio: read-out: Apical Efflux Ratio; for Papp: read-out: Permeability
T1 construct: expressed in transfected cells; host or cells: LLC-PKT (so in the source) porcine kidney epithelial cells
Description: (§1) The general assay uses transfected LLC-PKT cells (porcine kidney epithelial cells) over-expressing human or mouse P-gp, cultured on 96 well semi-permeable filter membrane plates, where they form a polarized monolayer with tight junctions, and act as a barrier between the apical and basolateral compartment.
(§2) P-gp is expressed in the apical-facing membrane of the monolayer.
(§3) The tightness of the cell monolayer and functional activity of P-gp are confirmed by addition of a cell-impermeable marker, Lucifer yellow, and a reference P-gp substrate, edoxaban, respectively.

[1] = molecular target: T2, hERG cardiac potassium channel (Homo sapiens, UniProt Q12809); assay: hERG screening assay (automated patch clamp); assay type: cell-based; details: CHO crelox hERG cells, whole-cell patch clamp, 35-37° C.
T2 construct: Evotec (cryopreserved cells) ATCC PTA-6812; host or cells: CHO crelox hERG cell line (Chinese hamster)
Description: In the drug development process of small molecules, one of the most frequent adverse side effects, leading to the failure of drugs, is the cardiac arrhythmias. Such failure is often related to the capacity of the drug to inhibit the human ether-a-go-go-related gene (hERG) cardiac potassium channel. Having no or low inhibition of the hERG cardiac potassium channel is therefore considered as beneficial.
The CHO crelox hERG cell line (ATCC reference Nr. PTA-6812, female Chinese hamster cells) was generated and validated at Roche. Ready-to-use frozen instant CHO-hERG cells were cryopreserved at Evotec (Germany) and used directly in the experiments.
The extracellular solution contains (in mM): NaCl 150; KCl 4; CaCl2 1; MgCl2 1; HEPES 10; pH 7.2-7.4 with NaOH, osmolarity 290-330 mOsm. […]
The effects of a compound on hERG K+-currents parameters will be evaluated at 2 concentrations in at least 4 cells.
The hERG test is performed using automated patch clamp system SynchroPatch® 384 (Nanion Technologies GmbH, Germany). K+ currents are measured with the patch-voltage-clamp technique in the whole-cell configuration at 35-37° C. […]
The amplitudes of IKhERG were recorded in each concentration of drug and they were compared to the vehicle control values (taken as 100%) to define fractional blocks. […]

mouse P-gp = assay: Transcellular P-gp assay (mouse P-gp); assay type: in vitro ADME; details: LLC-PK1, first value of cell, transfected LLC-PK cells; for efflux ratio: read-out: Apical Efflux Ratio; for Papp: read-out: Permeability
Description: as §1, §2, §3

T1 sequence (P08183 whole entry): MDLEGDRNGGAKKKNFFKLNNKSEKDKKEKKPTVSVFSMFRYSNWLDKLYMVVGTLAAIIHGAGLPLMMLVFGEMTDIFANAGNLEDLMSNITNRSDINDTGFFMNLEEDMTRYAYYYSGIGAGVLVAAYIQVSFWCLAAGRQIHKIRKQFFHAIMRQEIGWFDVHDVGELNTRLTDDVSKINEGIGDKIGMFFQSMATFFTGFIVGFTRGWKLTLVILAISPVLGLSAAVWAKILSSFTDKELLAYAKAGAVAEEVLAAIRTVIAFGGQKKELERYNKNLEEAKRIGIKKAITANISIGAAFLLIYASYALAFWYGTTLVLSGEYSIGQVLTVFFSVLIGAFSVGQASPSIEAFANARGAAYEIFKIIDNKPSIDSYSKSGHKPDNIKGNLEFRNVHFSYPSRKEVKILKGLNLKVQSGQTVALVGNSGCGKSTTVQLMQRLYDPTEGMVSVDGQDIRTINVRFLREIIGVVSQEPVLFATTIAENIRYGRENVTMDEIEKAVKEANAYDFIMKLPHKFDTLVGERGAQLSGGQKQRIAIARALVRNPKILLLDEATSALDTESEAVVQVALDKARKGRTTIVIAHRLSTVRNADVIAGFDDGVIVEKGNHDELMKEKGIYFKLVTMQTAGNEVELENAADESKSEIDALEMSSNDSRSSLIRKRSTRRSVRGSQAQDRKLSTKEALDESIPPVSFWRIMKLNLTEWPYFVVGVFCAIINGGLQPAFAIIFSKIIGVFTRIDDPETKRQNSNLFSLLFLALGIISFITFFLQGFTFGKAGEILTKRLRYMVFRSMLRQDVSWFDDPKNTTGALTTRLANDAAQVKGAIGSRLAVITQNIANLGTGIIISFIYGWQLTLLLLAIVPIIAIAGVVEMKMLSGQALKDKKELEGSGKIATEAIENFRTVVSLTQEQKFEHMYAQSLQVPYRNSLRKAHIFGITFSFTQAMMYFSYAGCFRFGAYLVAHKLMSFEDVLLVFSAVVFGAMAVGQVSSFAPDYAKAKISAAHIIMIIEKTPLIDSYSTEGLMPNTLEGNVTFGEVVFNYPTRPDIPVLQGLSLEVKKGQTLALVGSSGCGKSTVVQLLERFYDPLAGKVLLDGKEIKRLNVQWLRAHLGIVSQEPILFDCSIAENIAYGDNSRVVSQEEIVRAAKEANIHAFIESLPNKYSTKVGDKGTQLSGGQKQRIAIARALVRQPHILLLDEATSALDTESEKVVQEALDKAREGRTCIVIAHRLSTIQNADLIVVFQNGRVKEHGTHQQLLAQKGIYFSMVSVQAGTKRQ
T2 sequence (Q12809 whole entry): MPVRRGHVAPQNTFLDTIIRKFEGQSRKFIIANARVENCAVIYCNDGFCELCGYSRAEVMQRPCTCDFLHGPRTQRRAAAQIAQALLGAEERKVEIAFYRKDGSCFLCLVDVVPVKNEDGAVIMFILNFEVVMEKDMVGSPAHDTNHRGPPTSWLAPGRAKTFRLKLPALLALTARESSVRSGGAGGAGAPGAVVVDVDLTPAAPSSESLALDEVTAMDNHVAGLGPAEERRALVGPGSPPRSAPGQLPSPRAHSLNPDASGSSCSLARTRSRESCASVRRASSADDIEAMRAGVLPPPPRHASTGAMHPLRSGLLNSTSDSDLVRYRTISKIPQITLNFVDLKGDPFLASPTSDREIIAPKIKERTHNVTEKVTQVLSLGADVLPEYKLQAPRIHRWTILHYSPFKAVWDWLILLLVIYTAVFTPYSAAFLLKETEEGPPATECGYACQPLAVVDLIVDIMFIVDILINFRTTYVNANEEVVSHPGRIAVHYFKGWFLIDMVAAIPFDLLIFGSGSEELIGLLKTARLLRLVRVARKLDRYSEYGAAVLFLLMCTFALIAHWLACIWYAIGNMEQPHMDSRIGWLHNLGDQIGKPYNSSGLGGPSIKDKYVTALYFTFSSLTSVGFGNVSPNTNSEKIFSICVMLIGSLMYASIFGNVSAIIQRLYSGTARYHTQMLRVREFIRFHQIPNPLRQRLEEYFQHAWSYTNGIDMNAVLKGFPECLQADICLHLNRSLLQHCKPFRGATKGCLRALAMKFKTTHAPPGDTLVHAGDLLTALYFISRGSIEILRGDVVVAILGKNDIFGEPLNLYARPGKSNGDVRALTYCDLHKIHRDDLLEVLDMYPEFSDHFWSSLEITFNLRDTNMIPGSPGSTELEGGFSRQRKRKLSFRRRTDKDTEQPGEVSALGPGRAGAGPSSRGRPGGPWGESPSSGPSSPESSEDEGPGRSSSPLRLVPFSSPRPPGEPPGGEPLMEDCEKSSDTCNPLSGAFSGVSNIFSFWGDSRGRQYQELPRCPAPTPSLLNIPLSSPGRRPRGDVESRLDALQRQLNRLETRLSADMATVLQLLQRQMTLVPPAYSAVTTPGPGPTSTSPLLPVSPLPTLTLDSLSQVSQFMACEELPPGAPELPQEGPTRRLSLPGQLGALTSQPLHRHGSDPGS

efflux ratio (human P-gp)	Papp (human P-gp)	efflux ratio (mouse P-gp)	Papp (mouse P-gp)	Structure (SMILES)	IC20 [1]
4.8	19 ×10⁻⁶ cm/s	10	17 ×10⁻⁶ cm/s	Cn1c(-c2ccc3c(c2O)CCC3)nnc(N[C@@H]2CCCN(CCO)C2)c1=O [Example 2, 6-[[(3R)-1-(2-Hydroxyethyl)-3-piperidyl]amino]-3-(4-hydroxyindan-5-yl)-4-methyl-1,2,4-triazin-5-one]	> 10 µM
4.8	4.7 ×10⁻⁶ cm/s	8.6	4.7 ×10⁻⁶ cm/s	Cn1c(-c2ccc3c(c2O)CCO3)nnc(N[C@@H]2CCCN(CCO)C2)c1=O [Example 1, 3-(4-Hydroxy-2,3-dihydrobenzofuran-5-yl)-6-[[(3R)-1-(2-hydroxyethyl)-3-piperidyl]amino]-4-methyl-1,2,4-triazin-5-one]	> 10 µM
1.2	25 ×10⁻⁶ cm/s	2	23.2 ×10⁻⁶ cm/s	CCN1CCC[C@@H](Nc2nnc(-c3ccc4c(c3O)CCO4)n(C)c2=O)C1 [RE-A, 6-[[(3R)-1-Ethyl-3-piperidyl]amino]-3-(4-hydroxy-2,3-dihydrobenzofuran-5-yl)-4-methyl-1,2,4-triazin-5-one, reference compound]	

— patent US20260109689A1, “NOVEL COMPOUNDS” (Hoffmann-La Roche Inc., priority 2023, published 2026)
